From US20250319183A1, “COMPOSITIONS AND METHODS FOR THE TREATMENT OF CANCER” (Beth Israel Deaconess Medical Center, priority 2021, published 2025)
One block for each compound: values may come before it. Square brackets hold non-standard residues; d marks the D form. Peptide text beside a SMILES is read from it.

How the values were obtained:
THP-1 = assay: TCRL antibody binding (PR1-HLA-A2 presentation) on THP-1, flow cytometry; format: cell-based; conditions: four doses of 1 μM added twice daily for two days, then two days culture
Experimental: To determine the effect hypomethylation agents (HMAa) have on tumor antigen presentation, AML patient-derived tumor cells were treated for two days with four doses of 1 μM SGI-110, an HMA, added twice daily and then cultured for additional two days. TAP2 expression was assessed using immunohistochemical staining with and without treatment with SGI-110 (FIG. 3A). The HLA-A2 expressing AML cell line, THP-1, was treated for two days with four doses of 1 μM SGI-110 added twice daily and then cultured for an additional two days. The cells were then analyzed for binding capacity of a unique T cell receptor-like (TCRL) antibody. The TCRL antibody is a TCR mimic that recognizes the PR1-HLA-A2-MHC complex on the surface of leukemic cells where PR-1 is a known leukemic antigen. […] An HLA-A2 negative cell line U937 (histiocytic lymphoma) was used as a negative control.

[1] = tested on: multiple myeloma (MM) and AML cell lines; conditions: single agent; cited from earlier work
AML cell = conditions: in combination with decitabine; cited from earlier work
[2] = tested on: chronic lymphocytic leukemia (CLL) and AML cells; conditions: cited from earlier work

tumor antigen presentation, binding of TCRL antibody (THP-1): increased binding of TCRL antibody
Compound: Nc1ncn([C@H]2C[C@H](OP(=O)(O)OCC3O[C@@H](n4cnc5c(=O)[nH]c(N)nc54)CC3O)[C@@H](CO)O2)c(=O)n1 (stereo in doubt) [SGI-110, 2′-deoxy-5-aza-cytidylyl-(3′->5′)-2′-deoxy-guanosine]

Compound: CN(C)CC[C@H](CSc1ccccc1)Nc1ccc(S(=O)(=O)NC(=O)c2ccc(N3CCN(Cc4ccccc4-c4ccc(Cl)cc4)CC3)cc2)cc1[N+](=O)[O-] [ABT-737, 4-[4-[[2-(4-chlorophenyl)phenyl]methyl]piperazin-1-yl]-N-[4-[[(2R)-4-(dimethylamino)-1-phenylsulfanylbutan-2-yl]amino]-3-nitrophenyl]sulfonylbenzamide]
activity against cell lines [1]: single agent activity

Compound: N=C(N)NCCC[C@@H](N)C(=O)N[C@H](CCCNC(=N)N)C(=O)N[C@H](CCCNC(=N)N)C(=O)N[C@H](CCCNC(=N)N)C(=O)N[C@H](CCCNC(=N)N)C(=O)N[C@H](CCCNC(=N)N)C(=O)N[C@H](CCCNC(=N)N)C(=O)N[C@H](CCCNC(=N)N)C(=O)N[C@H](CCCNC(=N)N)C(=O)N[C@H](CS)C(=O)N[C@H](CCC(N)=O)C(=O)N[C@H](CS)C(=O)N[C@H](CCCNC(=N)N)C(=O)N[C@H](CCCNC(=N)N)C(=O)N[C@H](CCCCN)C(=O)N[C@H](CC(N)=O)C(=O)O.O=C(O)C(F)(F)F [GO-203, D-arginyl-D-arginyl-D-arginyl-D-arginyl-D-arginyl-D-arginyl-D-arginyl-D-arginyl-D-arginyl-D-cysteinyl-D-glutaminyl-D-cysteinyl-D-arginyl-D-arginyl-D-lysyl-D-asparagine trifluoroacetic acid] (H-[dR][dR][dR][dR][dR][dR][dR][dR][dR][dC][dQ][dC][dR][dR][dK][dN]-OH)
DNMT1 levels and AML cell survival (AML cell): effectively reduces DNMT1 levels and AML cell survival

Compound: CC1(C)CCC(c2ccc(Cl)cc2)=C(CN2CCN(c3ccc(C(=O)NS(=O)(=O)c4ccc(N[C@H](CCN5CCOCC5)CSc5ccccc5)c(S(=O)(=O)C(F)(F)F)c4)cc3)CC2)C1 [navitoclax, 4-[4-[[2-(4-chlorophenyl)-5,5-dimethylcyclohexen-1-yl]methyl]piperazin-1-yl]-N-[4-[[(2R)-4-morpholin-4-yl-1-phenylsulfanylbutan-2-yl]amino]-3-(trifluoromethylsulfonyl)phenyl]sulfonylbenzamide]
anti-cancer activity [2]: anti-cancer activity
